Assay results from patent US20140135319A1, “6-SUBSTITUTED IMIDAZOPYRAZINES FOR USE AS MPS-1 AND TKK INHIBITORS IN THE TREATMENT OF HYPERPROLIFERATIVE DISORDERS” (BAYER INTELLECTUAL PROPERTY GMBH, priority 2010, published 2014).

Target: T1, human kinase Mps-1 (Homo sapiens, UniProt P33981)
T1 construct: N-terminally GST-tagged human full length recombinant Mps-1 kinase; GST (N); purchased Invitrogen, Karslruhe, Germany PV4071
T1 sequence (P33981 1-857): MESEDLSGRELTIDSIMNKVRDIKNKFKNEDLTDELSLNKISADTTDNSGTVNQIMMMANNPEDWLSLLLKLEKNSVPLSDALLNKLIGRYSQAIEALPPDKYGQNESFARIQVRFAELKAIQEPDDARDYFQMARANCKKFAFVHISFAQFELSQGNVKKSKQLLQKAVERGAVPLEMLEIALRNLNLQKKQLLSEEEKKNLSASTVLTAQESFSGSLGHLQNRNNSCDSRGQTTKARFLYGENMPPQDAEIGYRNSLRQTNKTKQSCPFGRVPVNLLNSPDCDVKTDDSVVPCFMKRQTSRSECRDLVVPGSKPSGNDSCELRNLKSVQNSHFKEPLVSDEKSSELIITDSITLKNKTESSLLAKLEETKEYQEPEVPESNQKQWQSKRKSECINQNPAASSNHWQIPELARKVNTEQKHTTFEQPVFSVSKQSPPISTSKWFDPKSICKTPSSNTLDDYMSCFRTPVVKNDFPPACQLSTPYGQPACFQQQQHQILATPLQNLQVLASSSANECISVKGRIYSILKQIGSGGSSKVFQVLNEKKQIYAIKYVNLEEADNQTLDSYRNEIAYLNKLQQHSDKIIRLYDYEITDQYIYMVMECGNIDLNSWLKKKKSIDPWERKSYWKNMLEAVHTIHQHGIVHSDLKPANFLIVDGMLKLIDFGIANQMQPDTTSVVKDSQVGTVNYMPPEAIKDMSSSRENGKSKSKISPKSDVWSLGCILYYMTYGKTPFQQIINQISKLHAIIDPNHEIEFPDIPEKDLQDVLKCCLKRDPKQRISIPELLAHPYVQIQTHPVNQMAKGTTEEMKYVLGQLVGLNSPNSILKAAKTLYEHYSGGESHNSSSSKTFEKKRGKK
Test: Mps-1 kinase assay (TR-FRET)
Type: biochemical
Conditions: GST-tagged human full length recombinant Mps-1; 10 μM ATP; 1 μM peptide substrate; 60 min at 22° C.
Protocol: The human kinase Mps-1 phosphorylates a biotinylated substrate peptide. Detection of the phosphorylated product is achieved by time-resolved fluorescence resonance energy transfer (TR-FRET) from Europium-labelled anti-phospho-Serine/Threonine antibody as donor to streptavidin labelled with cross-linked allophycocyanin (SA-XLent) as acceptor. Compounds are tested for their inhibition of the kinase activity.
N-terminally GST-tagged human full length recombinant Mps-1 kinase (purchased from Invitrogen, Karslruhe, Germany, cat. no PV4071) was used. As substrate for the kinase reaction a biotinylated peptide of the amino-acid sequence […] (C-terminus in amide form, purchased from Biosynthan GmbH, Berlin) was used.
The concentration of Mps-1 in the assay was adjusted to the activity of the enzyme lot and was chosen appropriate to have the assay in the linear range, typical enzyme concentrations were in the range of about 1 nM (final conc. in the 5 μl assay volume).
The resulting mixture was incubated 1 h at 22° C. to allow the binding of the phosphorylated peptide to the anti-phospho(Ser/Thr)-Europium-antibody. Subsequently the amount of phosphorylated substrate was evaluated by measurement of the resonance energy transfer from the Europium-labelled anti-phospho(Ser/Thr) antibody to the Streptavidin-XLent. Therefore, the fluorescence emissions at 620 nm and 665 nm after excitation at 350 nm was measured in a Viewlux TR-FRET reader (PerkinElmer LAS, Rodgau-Jügesheim, Germany). The “blank-corrected normalized ratio” (a Viewlux specific readout, similar to the traditional ratio of the emissions at 665 nm and at 622 nm, in which blank and Eu-donor crosstalk are subtracted from the 665 nm signal before the ratio is calculated) was taken as the measure for the amount of phosphorylated substrate.

Compound	IC50 [µM]
O=C(NC1CC1)c1ccc(-c2cnc3c(NCC4CCCO4)nc(-c4ccoc4)cn23)cc1F (stereo not shown) [Example 1-62, N-cyclopropyl-2-fluoro-4-{6-(furan-3-yl)-8-[(tetrahydrofuran-2-ylmethyl)amino]imidazo [1,2-a]pyrazin-3-yl} benzamide]	0.0183
CC(C)CNc1nc(-c2ccc(S(=O)(=O)n3cccc3)cc2)cn2c(-c3ccc(C(=O)NC4CC4)cc3)cnc12 [Example 1-23, N-cyclopropyl-4-{8-[(2-methylpropyl)amino]-6-[4-(1H-pyrrol-1-yl-sulonyl)phenyl]imidazo [1,2-a]pyrazin-3-yl} benzamide]	0.0131
NCC#CCCNc1nc(-c2ccccc2)cn2c(-c3ccc(C(=O)NC4CC4)cc3)cnc12 [Example 4-1, 4-{8-[(5-Aminopent-3-yn-1-yl)amino]-6-phenylimidazo[1,2-a]pyrazin-3-yl}-N-cyclopropylbenzamide]	0.0108
NC/C=C/CCNc1nc(-c2ccccc2)cn2c(-c3ccc(C(=O)NC4CC4)cc3)cnc12 [Example 4-2, 4-(8-{[(3E)-5-aminopent-3-en-1-yl]amino}-6-phenylimidazo[1,2-a]pyrazin-3-yl)-N-cyclopropylbenzamide]	0.0044
O=C(NC1CC1)c1ccc(-c2cnc3c(NCc4ccco4)nc(-c4ccncc4)cn23)cc1 [Example 3-20, N-cyclopropyl-4-{8-[(furan-2-ylmethyl)amino]-6-(pyridin-4-yl)imidazo [1,2-a]pyrazin-3-yl} benzamide]	0.0035
C#CCNc1nc(-c2ccccc2)cn2c(-c3ccc(C(=O)NC4CC4)cc3)cnc12 [Example 3-2, N-cyclopropyl-4-[6-phenyl-8-(prop-2-yn-1-ylamino)imidazo[1,2-a]pyrazin-3-yl]benzamide]	0.0074
Cc1cc(-c2cnc3c(NCC4CC4C)nc(-c4ccc(F)cc4)cn23)ccc1C(=O)NC1CC1 (stereo not shown) [Example 6-3, N-cyclopropyl-4-[6-(4-fluorophenyl)-8-{[(2-methylcyclopropyl)methyl]amino}imidazo[1,2-a]pyrazin-3-yl]-2-methylbenzamide]	0.0104
O=C(NC1CC1)c1ccc(-c2cnc3c(NCCC(F)(F)F)nc(-c4ccn[nH]4)cn23)cc1Cl [Example 1-38, 2-chloro-N-cyclopropyl-4-{6-(1H-pyrazol-5-yl)-8-[(3,3,3-trifluoropropyl)amino]imidazo[1,2-a]pyrazin-3-yl}benzamide]	0.0141
CCN1CCC(CNc2nc(C3=CCOCC3)cn3c(-c4ccc(C(=O)NC5CC5)c(C)c4)cnc23)C1 (stereo not shown) [Example 6-19, N-cyclopropyl-4-[6-(3,6-dihydro-2H-pyran-4-yl)-8-{[(1-ethyl-pyrrolidin-3-yl)methyl]amino}imidazo[1,2-a]pyrazin-3-yl]-2-methylbenzamide]	0.338
Cn1ccc(CNc2nc(-c3cccc(CC(N)=O)c3)cn3c(-c4ccc(C(=O)NC5CC5)cc4)cnc23)n1 [Example 1-94, 4-(6-[3-(2-Amino-2-oxo-ethyl)phenyl]-8-{[(1-methyl-1H-pyrazol-3-yl)methyl]amino}imidazo[1,2-a]pyrazin-3-yl)-N-cyclopropyl benzamide]	0.0049
NCCCCCNc1nc(-c2cccc(CC(N)=O)c2)cn2c(-c3ccc(C(=O)NC4CC4)cc3)cnc12 [Example 1-96, 4-{6-[3-(2-Amino-2-oxo-ethyl)phenyl]-8-[(5-amino-pentyl)amino]imidazo[1,2-a]pyrazin-3-yl}-N-cyclo-propylbenzamide]	0.0056
O=C(NC1CC1)c1ccc(-c2cnc3c(NCc4ccccn4)nc(-c4ccncc4)cn23)cc1 [Example 3-17, N-cyclopropyl-4-{6-(pyridin-4-yl)-8-[(pyridin-2-ylmethyl)amino]imidazo [1,2-a]pyrazin-3-yl} benzamide]	0.0046
NCCCNc1nc(-c2ccncc2)cn2c(-c3ccc(C(=O)NC4CC4)c(Cl)c3)cnc12 [Example 1-101, 4-{8-[(3-Aminopropyl)amino]-6-(pyridin-4-yl)imidazo [1,2-a]pyrazin-3-yl}-2-chloro-N-cyclopropyl-benzamide]	0.361
CS(=O)(=O)CCCNc1nc(-c2ccncc2)cn2c(-c3ccc(C(=O)NC4CC4)cc3)cnc12 [Example 3-32, N-cyclopropyl-4-[8-{[3-(methylsulfonyl)propyl]amino}-6-(pyridin-4-yl)imidazo[1,2-a]pyrazin-3-yl]benzamide]	0.0215
O=C(NC1CC1)c1ccc(-c2cnc3c(NCC(O)C(F)(F)F)nc(-c4ccncc4)cn23)cc1 (stereo not shown) [Example 3-21, N-cyclopropyl-4-{6-(pyridin-4-yl)-8-[(3,3,3-tri-fluoro-2-hydroxypropyl)amino]imidazo[1,2-a]pyrazin-3-yl}benzamide]	0.0016
Cn1nccc1-c1cn2c(-c3ccc(C(=O)NC4CC4)cc3)cnc2c(NCC(C)(C)O)n1 [Example 1-97, N-cyclopropyl-4-{8-[(2-hydroxy-2-methylpropyl)amino]-6-(1-methyl-1H-pyrazol-5-yl)imidazo[1,2-a]pyrazin-3-yl}benzamide]	0.0178
CC(C)CNc1nc(-c2ccncc2)cn2c(-c3ccc(C(=O)NC4CC4)cc3)cnc12 [Example 1-1, N-cyclopropyl-4-{8-[(2-methylpropyl)amino]-6-(pyridin-4-yl)imidazo[1,2-a]pyrazin-3-yl}benzamide]	0.0018
Cc1cc(-c2cnc3c(NCC(C)(C)O)nc(Sc4ccccc4)cn23)ccc1C(=O)NC1CC1 [Example 15-1, N-cyclopropyl-4-{8-[(2-hydroxy-2-methylpropyl)amino]-6-(phenylsulfanyl)imidazo[1,2-a]pyrazin-3-yl}-2-methylbenzamide]	< 0.001
CC(C)CNc1nc(-c2ccc3nccn3c2)cn2c(-c3ccc(C(=O)NC4CC4)cc3)cnc12 [Example 1-19, N-cyclopropyl-4-{6-(imidazo[1,2-a]pyridin-6-yl)-8-[(2-methylpropyl)amino]imidazo[1,2-a]pyrazin-3-yl}benzamide]	0.0022
CC(C)CNc1nc(-c2cccc(CC(=O)O)c2)cn2c(-c3ccc(C(=O)NC4CC4)cc3)cnc12 [Example 1-88, (3-{3-[4-(cyclopropyl-carbamoyl)phenyl]-8-(iso-butylamino)imidazo[1,2-a]pyrazin-6-yl}phenyl)acetic acid]	0.0503
C=CCNc1nc(-c2ccccc2)cn2c(-c3ccc(C(=O)NC4CC4)cc3)cnc12 [Example 3-39, 4-[8-(Allylamino)-6-phenylimidazo[1,2-a]pyrazin-3-yl]-N-cyclopropylbenzamide]	0.0036
Cc1cc(-c2cnc3c(NCC(C)(C)O)nc(Oc4cccc(F)c4)cn23)ccc1C(=O)NC1CC1 [Example 13-5, N-cyclopropyl-4-{6-(3-fluorophenoxy)-8-[(2-hydroxy-2-methylpropyl)amino]imidazo[1,2-a]pyrazin-3-yl}-2-methyl benzamide]	0.0017
O=C(NC1CC1)c1ccc(-c2cnc3c(NC[C@@H](O)CO)nc(-c4ccncc4)cn23)cc1 [Example 3-37, N-cyclopropyl-4-{8-[(2,3-dihydroxypropyl)amino]-6-(pyridin-4-yl)imidazo [1,2-a]pyrazin-3-yl}benzamide]	0.0193
CC(=O)NCCNc1nc(-c2ccncc2)cn2c(-c3ccc(C(=O)NC4CC4)cc3)cnc12 [Example 3-14, 4-[8-{[2-(acetylamino)ethyl]amino}-6-(pyridin-4-yl)imidazo[1,2-a]pyrazin-3-yl]-N-cyclo-propylbenzamide]	0.0307
O=C(NC1CC1)c1ccc(-c2cnc3c(NCCC(F)(F)F)nc(C4=CCOCC4)cn23)cc1Cl [Example 1-39, 2-chloro-N-cyclopropyl-4-{6-(3,6-dihydro-2H-pyran-4-yl)-8-[(3,3,3-trifluoropropyl)amino]imidazo[1,2-a]pyrazin-3-yl}benzamide]	0.0122
